{
  "source": "patent US20260176258A1",
  "about": "“A THIOETHER COMPOUND HAVING SOFT DRUG PROPERTIES, A PHARMACEUTICAL COMPOSITION AND USE THEREOF” (Prime Gene Therapeutics Co., Ltd., priority 2022, published 2026)",
  "key": {"hTRPV3": {"molecular_target": "T1, hTRPV3 (Homo sapiens, UniProt Q8NET8)", "T1 construct": "expressed in transfected cells; host or cells: HEK-293", "T1 sequence (Q8NET8 1-790)": "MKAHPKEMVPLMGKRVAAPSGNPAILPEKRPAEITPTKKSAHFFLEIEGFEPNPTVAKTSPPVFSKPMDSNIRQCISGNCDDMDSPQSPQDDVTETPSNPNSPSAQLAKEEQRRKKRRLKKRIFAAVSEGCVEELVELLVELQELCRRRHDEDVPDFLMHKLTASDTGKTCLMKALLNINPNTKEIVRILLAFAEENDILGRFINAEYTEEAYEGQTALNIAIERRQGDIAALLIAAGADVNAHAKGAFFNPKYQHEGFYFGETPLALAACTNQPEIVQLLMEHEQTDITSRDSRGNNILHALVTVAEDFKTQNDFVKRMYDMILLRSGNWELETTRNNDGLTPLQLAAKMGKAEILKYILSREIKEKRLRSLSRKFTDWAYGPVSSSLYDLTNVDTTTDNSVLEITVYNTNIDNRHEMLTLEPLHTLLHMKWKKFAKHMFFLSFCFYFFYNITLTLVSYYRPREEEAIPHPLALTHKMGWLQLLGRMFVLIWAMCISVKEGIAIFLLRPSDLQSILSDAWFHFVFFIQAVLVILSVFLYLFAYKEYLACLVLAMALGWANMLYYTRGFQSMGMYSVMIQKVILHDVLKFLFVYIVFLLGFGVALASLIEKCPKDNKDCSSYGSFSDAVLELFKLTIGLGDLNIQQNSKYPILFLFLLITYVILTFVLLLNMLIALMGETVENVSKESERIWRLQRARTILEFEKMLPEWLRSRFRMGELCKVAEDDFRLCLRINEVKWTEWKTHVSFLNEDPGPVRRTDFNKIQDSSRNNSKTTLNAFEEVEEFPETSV", "assay": "Whole cell patch clamp of TRPV3 current in HEK-293 cells instantaneously expressing TRPV3", "type": "cell-based", "conditions": "for inhibition at 0.3 µM: HEK293, single concentration 0.3 μM, patch clamp, read-out: Inhibition rate on hTRPV3", "experimental": "In this study, HEK-293 cells instantaneously expressing TRPV3 were used for experimental detection.\nThe operation steps are as follows:\nThe cells were cultured in DMEM medium containing 10% fetal bovine serum at a temperature of 37° C. and a carbon dioxide concentration of 5%.\nDay 1: Cells were inoculated into a 6-well plate with 5×10^5 cells per well.\nDay 2: Transfection was performed using Lipofectamine 3000 transfection reagent, with a plasmid to transfection reagent ratio of 1 μg: 2 μL. The total amount of plasmid used per well was 3 μg. Specifically, two sterile centrifuge tubes were taken and 100 μL Opti-MEM was added to each tube. 6 μL Lipofectamine 3000 was added to one tube and mixed well; and 3 μg plasmid was added to another tube and mixed well, and then 6 μL P3000 was added and mixed well; after that, the diluted plasmid DNA was addeds to diluted Lipofectamine 3000 and incubated at room temperature for 10-15 min. DNA liposome complex was dropped into the cells, shaked gently and mixed well, and then cultured in an incubator. The liquid was changed after 4 to 6 h.\nDay 3: The cells were digested and seeded into 24 well plates with pre-placed cover slides, with 8×10^3 cells per well.\nDay 4: Patch clamp testing was performed.\nThe voltage stimulation protocol for recording TRPV3 current using whole cell patch clamp is as follows: after forming a whole cell seal, a cell membrane voltage clamp was set at −80 mV. Firstly, a membrane potential was recorded at 0 mV, and then a voltage was command to start from −100 mV, to depolarize in the form of Ramp to 100 mV within 100 ms, and finally restore to 0 mV. Data collection was repeated every 5 seconds to observe the inhibitory effect of pharmaceutical on peak current. Experimental data was collected by EPC 10 amplifier (HEKA) and stored in PatchMaster (HEKA) software.\nA microelectrode puller was used to pull the capillary glass tube into a recording electrode. The electrode filled with intracellular fluid was inserted into a microelectrode holder, and a microelectrode manipulator was operated under an inverted microscope to immerse the electrode in extracellular fluid and an electrode resistance (Rpip) was recorded. The electrode was brought into contact with the cell surface and a negative pressure suction was applied to form a high resistance seal (GΩ). At this point, a fast capacitance compensation was performed, and negative pressure was continued to apply in order to break the cell membrane, so that a whole cell recording mode was formed. Then, a slow capacitance compensation was performed and experimental parameters such as film capacitance (Cm) and series resistance (Rs) were recorded. No leakage compensation was provided.\nWhen the TRPV3 current recorded by the whole cell had stabilized, administration was started. Each pharmaceutical concentration acted for 5 minutes (or until the current stabilized) before detecting the next concentration. A plurality of concentrations was tested for each test compound. A cover glass covered with cells was placed in a recording bath under an inverted microscope. A blank control extracellular solution and a working fluid for the compound to be tested sequentially flowed through the recording bath from low concentration to high concentration using gravity perfusion to act on the cells. Liquid exchange was performed using a peristaltic pump during recording. The current detected by each cell in the extracellular fluid without the compound served as its own control group. Each concentration was independently tested twice using at least two cells. All electrophysiological tests were conducted at room temperature."}, "[1]": {"assay": "Liver microsome metabolism stability test, rat", "type": "in vitro ADME", "conditions": "rat liver microsomes 0.5 mg/mL, 1 μM compound, 37° C.", "experimental": "(§1) Two separate experiments were conducted. a) NADPH: 10 μL of 20 mg/mL liver microsomes and 40 μL of 10 mM NADPH were added to a culture medium. The final concentrations of microsomes and NADPH were 0.5 mg/mL and 1 mM, respectively. b) NADPH free: 10 μL of 20 mg/mL liver microsomes and 40 μL of ultrapure H2O were added to a culture medium. The final concentration of microsomes was 0.5 mg/mL.\n(§2) At the beginning of the reaction, 4 μL of 100 μM test compound solution or a control compound solution with a final concentration of 1 μM were added, and proceed at 37° C.\n(§3) 50 μL aliquots were taken from the reaction solution at 0, 7, 15, 30, and 60 minutes. The reaction was stopped by adding 4 volumes of cold acetonitrile and IS (100 nM alprazolam, 200 nM labetalol, 200 nM caffeine, and 2 μM ketoprofen). The samples were centrifuged at 3220 grams for 40 minutes. 100 μL supernatant divided equally was mixed with 100 μL of ultrapure H2O, and use for LC-MS/MS analysis."}, "[2]": {"assay": "Liver microsome metabolism stability test, human", "type": "in vitro ADME", "conditions": "human liver microsomes 0.5 mg/mL, 1 μM compound, 37° C.", "experimental": "as §1, §2, §3"}, "hTRPV1": {"molecular_target": "hTRPV1 (Homo sapiens, UniProt Q8NER1)", "sequence (Q8NER1 whole entry)": "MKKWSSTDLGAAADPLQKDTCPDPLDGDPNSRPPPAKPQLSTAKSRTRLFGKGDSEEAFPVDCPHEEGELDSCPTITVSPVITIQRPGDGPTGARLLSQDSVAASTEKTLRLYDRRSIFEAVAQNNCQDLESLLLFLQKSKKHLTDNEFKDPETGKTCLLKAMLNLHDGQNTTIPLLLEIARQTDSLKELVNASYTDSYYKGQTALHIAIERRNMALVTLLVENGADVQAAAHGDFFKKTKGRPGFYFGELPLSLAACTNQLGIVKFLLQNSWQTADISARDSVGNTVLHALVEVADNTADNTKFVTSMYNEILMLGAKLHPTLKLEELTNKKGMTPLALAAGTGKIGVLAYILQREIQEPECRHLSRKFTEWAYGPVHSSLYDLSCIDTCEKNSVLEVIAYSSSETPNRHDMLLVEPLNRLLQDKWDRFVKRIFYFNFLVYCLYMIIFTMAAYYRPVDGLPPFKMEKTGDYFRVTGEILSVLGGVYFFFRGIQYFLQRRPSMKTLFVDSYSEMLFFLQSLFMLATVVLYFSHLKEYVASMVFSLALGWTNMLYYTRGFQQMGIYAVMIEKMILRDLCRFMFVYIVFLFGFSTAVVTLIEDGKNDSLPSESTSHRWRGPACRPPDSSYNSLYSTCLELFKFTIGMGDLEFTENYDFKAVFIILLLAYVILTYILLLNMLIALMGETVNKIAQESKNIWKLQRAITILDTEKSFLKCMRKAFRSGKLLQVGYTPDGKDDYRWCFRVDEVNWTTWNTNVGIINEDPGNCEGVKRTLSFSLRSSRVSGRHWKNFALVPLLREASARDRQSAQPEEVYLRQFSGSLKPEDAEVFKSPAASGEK", "assay": "Patch clamp method, hTRPV1", "type": "cell-based"}, "hTRPA1": {"molecular_target": "hTRPA1 (Homo sapiens, UniProt O75762)", "sequence (O75762 whole entry)": "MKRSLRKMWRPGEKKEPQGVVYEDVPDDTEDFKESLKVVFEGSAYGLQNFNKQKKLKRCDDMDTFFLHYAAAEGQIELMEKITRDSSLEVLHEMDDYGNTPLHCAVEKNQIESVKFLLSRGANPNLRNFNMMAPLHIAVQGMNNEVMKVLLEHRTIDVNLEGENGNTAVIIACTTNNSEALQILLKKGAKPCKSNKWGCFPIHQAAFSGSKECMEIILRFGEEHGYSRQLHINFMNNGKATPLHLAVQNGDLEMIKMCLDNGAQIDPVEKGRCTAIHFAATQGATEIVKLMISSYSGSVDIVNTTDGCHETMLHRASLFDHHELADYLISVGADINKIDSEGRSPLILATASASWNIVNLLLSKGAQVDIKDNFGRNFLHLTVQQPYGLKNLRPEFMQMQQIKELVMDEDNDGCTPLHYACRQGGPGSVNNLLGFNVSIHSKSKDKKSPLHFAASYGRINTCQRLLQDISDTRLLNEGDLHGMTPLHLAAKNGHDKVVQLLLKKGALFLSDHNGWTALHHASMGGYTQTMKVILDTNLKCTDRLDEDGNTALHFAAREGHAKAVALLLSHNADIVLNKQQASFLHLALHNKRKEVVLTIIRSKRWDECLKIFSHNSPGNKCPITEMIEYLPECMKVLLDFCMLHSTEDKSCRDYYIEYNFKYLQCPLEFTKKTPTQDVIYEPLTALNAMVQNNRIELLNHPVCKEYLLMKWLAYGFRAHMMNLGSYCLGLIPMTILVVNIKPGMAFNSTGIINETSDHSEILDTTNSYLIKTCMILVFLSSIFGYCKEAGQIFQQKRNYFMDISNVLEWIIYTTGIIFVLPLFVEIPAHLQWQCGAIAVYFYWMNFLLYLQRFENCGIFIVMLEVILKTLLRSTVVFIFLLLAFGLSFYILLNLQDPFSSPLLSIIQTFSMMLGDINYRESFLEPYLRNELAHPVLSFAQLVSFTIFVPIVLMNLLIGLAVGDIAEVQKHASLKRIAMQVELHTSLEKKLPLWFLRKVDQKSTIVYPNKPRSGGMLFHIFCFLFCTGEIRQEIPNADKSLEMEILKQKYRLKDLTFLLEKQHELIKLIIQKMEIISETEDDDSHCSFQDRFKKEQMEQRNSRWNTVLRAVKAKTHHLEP", "assay": "Patch clamp method, hTRPA1", "type": "cell-based"}, "hTRPV4": {"molecular_target": "hTRPV4 (Homo sapiens, UniProt Q9HBA0)", "sequence (Q9HBA0 whole entry)": "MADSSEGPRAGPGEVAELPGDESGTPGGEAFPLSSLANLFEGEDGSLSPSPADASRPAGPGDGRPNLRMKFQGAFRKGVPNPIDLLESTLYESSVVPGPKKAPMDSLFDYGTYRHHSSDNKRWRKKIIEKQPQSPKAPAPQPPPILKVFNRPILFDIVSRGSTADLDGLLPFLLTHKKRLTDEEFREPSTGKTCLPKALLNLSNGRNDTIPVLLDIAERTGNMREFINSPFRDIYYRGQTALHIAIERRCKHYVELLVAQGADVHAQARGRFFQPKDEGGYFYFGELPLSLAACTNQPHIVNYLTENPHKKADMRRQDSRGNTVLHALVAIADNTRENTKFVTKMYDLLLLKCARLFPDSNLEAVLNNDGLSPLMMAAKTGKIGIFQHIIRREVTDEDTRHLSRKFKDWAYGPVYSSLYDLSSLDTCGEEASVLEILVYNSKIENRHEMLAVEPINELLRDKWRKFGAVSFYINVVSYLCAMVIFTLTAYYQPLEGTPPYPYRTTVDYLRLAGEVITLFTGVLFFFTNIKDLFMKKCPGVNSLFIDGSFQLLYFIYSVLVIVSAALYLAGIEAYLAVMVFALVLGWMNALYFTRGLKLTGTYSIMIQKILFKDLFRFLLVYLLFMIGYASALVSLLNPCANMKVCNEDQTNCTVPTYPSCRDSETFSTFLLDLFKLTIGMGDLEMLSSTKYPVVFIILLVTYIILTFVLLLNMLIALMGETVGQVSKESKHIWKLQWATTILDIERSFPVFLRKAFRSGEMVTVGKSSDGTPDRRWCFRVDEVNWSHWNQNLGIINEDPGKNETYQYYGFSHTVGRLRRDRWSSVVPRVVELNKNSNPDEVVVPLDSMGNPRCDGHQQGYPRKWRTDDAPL", "assay": "Patch clamp method, hTRPV4", "type": "cell-based"}},
  "data": [
    {"smiles": "CC(C)c1ccccc1-c1ccc(N2CC[C@H](S(=O)(=O)c3ccc(Cl)cn3)C2)c(CO)c1", "note": "[Example 2, ((S)-(4-(3-(5-chloropyridin-2-yl)sulfonyl)pyrrolidin-1-yl)-2′-isopropyl-[1,1′-biphenyl]-3-yl) methanol]", "values": [
      {"measurement": "inhibition at 0.3 µM", "setting": "hTRPV3", "value": 18.6, "unit": "%"}
    ]},
    {"smiles": "CC(C)c1ccccc1-c1ccc(N2CC[C@H](Sc3ccc(C(F)(F)F)cn3)C2)c(CO)c1", "note": "[Example 7, ((S)-(2′-isopropyl-4-(3-(5-(trifluoromethyl)pyridin-2-yl)thio)pyrrolidin-1-yl)-[1,1′-biphenyl]-3-yl) methanol]", "values": [
      {"measurement": "inhibition at 0.3 µM", "setting": "hTRPV3", "value": 38, "unit": "%"}
    ]},
    {"smiles": "O=S(=O)(c1ccc(Cl)cn1)[C@H]1CCN(c2ccc(-c3ccccc3C3CC3)cc2CO)C1", "note": "[Example 5, (S)-(4-(3-((5-chloropyridin-2-yl)sulfonyl)pyrrolidin-1-yl)-2′-cyclopropyl-[1,1′-biphenyl]-3-yl) methanol]", "values": [
      {"measurement": "inhibition at 0.3 µM", "setting": "hTRPV3", "value": 23.1, "unit": "%"}
    ]},
    {"smiles": "CC(C)c1ccccc1-c1ccc(N2CC[C@H](Sc3ccc(Cl)cn3)C2)c(CO)c1", "note": "[Example 1, ((S)-(4-(3-(5-chloropyridin-2-yl)thio)pyrrolidin-1-yl)-2′-isopropyl-[1,1′-biphenyl]-3-yl) methanol]", "values": [
      {"measurement": "in vitro Clint", "setting": "[1]", "value": "112.14 microliters/minute/milligrams"},
      {"measurement": "half-life at 1 μM", "setting": "[1]; read-out: in vitro T1/2", "value": 12.4, "unit": "min"},
      {"measurement": "inhibition at 0.3 µM", "setting": "hTRPV3", "value": 71.6, "unit": "%"},
      {"measurement": "in vitro Clint", "setting": "[2]", "value": "135.00 microliters/minute/milligrams"},
      {"measurement": "half-life at 1 μM", "setting": "[2]; read-out: in vitro T1/2", "value": 10.3, "unit": "min"}
    ]},
    {"smiles": "[O-][S+](c1ccc(Cl)cn1)[C@H]1CCN(c2ccc(-c3ccccc3C3CC3)cc2CO)C1", "note": "(stereo partly shown) [Example 6]", "values": [
      {"measurement": "inhibition at 0.3 µM", "setting": "hTRPV3", "value": 4.73, "unit": "%"}
    ]},
    {"smiles": "OCc1cc(-c2ccccc2C2CC2)ccc1N1CC[C@H](Sc2ccc(Cl)cn2)C1", "note": "[Example 4, ((S)-(4-(3-(5-chloropyridin-2-yl)thio)pyrrolidin-1-yl)-2′-cyclopropyl-[1,1′-biphenyl]-3-yl) methanol]", "values": [
      {"measurement": "inhibition at 0.3 µM", "setting": "hTRPV1; 0.3 μM, patch clamp method, read-out: Inhibition rate (%) on hTRPV1", "value": 0.48, "unit": "%"},
      {"measurement": "Selectivity ratio (hTRPV1)", "setting": "hTRPV1; ratio of inhibition rate on TRPV3 to inhibition rate on hTRPV1, 0.3 μM", "value": 152, "unit": "x"},
      {"measurement": "inhibition at 0.3 µM", "setting": "hTRPA1; 0.3 μM, patch clamp method, read-out: Inhibition rate (%) on hTRPA1", "value": 2.44, "unit": "%"},
      {"measurement": "Selectivity ratio (hTRPA1)", "setting": "hTRPA1; ratio of inhibition rate on TRPV3 to inhibition rate on hTRPA1, 0.3 μM", "value": 30, "unit": "x"},
      {"measurement": "inhibition at 0.3 µM", "setting": "hTRPV4; 0.3 μM, patch clamp method, read-out: Inhibition rate (%) on hTRPV4", "value": 36.2, "unit": "%"},
      {"measurement": "Selectivity ratio (hTRPV4)", "setting": "hTRPV4; ratio of inhibition rate on TRPV3 to inhibition rate on hTRPV4, 0.3 μM", "value": 2, "unit": "x"},
      {"measurement": "inhibition at 0.3 µM", "setting": "hTRPV3", "value": 72.8, "unit": "%"},
      {"measurement": "Selectivity ratio (hTRPV3)", "setting": "hTRPV3; ratio of inhibition rate on TRPV3 to inhibition rate on this channel, 0.3 μM", "value": 1, "unit": "x"}
    ]},
    {"smiles": "OCc1cc(-c2ccccc2C2CC2)ccc1N1CC[C@H](Sc2ccc(F)cn2)C1", "note": "[Example 10, ((S)-(4-(3-(5-fluoropyridin-2-yl)thio)pyrrolidin-1-yl)-2′-cyclopropyl-[1,1′-biphenyl]-3-yl) methanol]", "values": [
      {"measurement": "inhibition at 0.3 µM", "setting": "hTRPV3", "value": 97.8, "unit": "%"}
    ]},
    {"smiles": "CC(C)c1ccccc1-c1ccc(N2CC[C@H]([S+]([O-])c3ccc(Cl)cn3)C2)c(CO)c1", "note": "(stereo partly shown) [Example 3]", "values": [
      {"measurement": "inhibition at 0.3 µM", "setting": "hTRPV3", "value": 9.96, "unit": "%"}
    ]}
  ]
}
